According to patent publication US20070276126A1, “Cell adhesion and extracellular matrix proteins” (Incyte Corporation, priority 2002, published 2007):

Key:
[1] = tested on: expression of SEQ ID NO:78 in normal and Tangier disease derived fibroblasts; assay: Microarray analysis of SEQ ID NO:78 expression in fibroblasts cultured in the presence versus absence of cholesterol; assay type: cell-based, human; details: fibroblasts cultured in the presence of cholesterol versus same cell type in the absence of cholesterol (one of 'both types of comparisons')
Procedure: (§1) Total RNA is isolated from tissue samples using the guanidinium thiocyanate method and poly(A)^+ RNA is purified using the oligo-(dT) cellulose method. Each poly(A)^+ RNA sample is reverse transcribed using MMLV reverse-transcriptase, 0.05 pg/μl oligo-(dT) primer (21 mer), 1× first strand buffer, 0.03 units/μl RNase inhibitor, 500 μM dATP, 500 μM dGTP, 500 μM dTTP, 40 μM dCTP, 40 μM dCTP-Cy3 (BDS) or dCTP-Cy5 (Amersham Biosciences). The reverse transcription reaction is performed in a […] containing 200 ng poly(A)^+ RNA with GEMBRIGHT kits (Incyte). Specific control poly(A)^+ RNAs are synthesized by in vitro transcription from non-coding yeast genomic DNA. […]
(§2) Reporter-labeled hybridization complexes are detected with a microscope equipped with an Innova 70 mixed gas 10 W laser (Coherent, Inc., Santa Clara Calif.) capable of generating spectral lines at 488 nm for excitation of Cy3 and at 632 nm for excitation of Cy5. […]
(§3) A grid is superimposed over the fluorescence signal image such that the signal from each spot is centered in each element of the grid. The fluorescence signal within each element is then integrated to obtain a numerical value corresponding to the average intensity of the signal. […]

[2] = tested on: expression of SEQ ID NO:78 in PHA blasts (T cell blasts derived from PBMCs); assay: Microarray analysis of SEQ ID NO:78 expression in reactivated PHA blasts versus untreated PHA blasts; assay type: cell-based, human; details: PHA blasts stimulated for 2 hours, versus matching untreated PHA blasts, one donor tested
Procedure: as §1, §2, §3

SMILES	downregulation of SEQ ID NO:78 [1]	downregulation of SEQ ID NO:78 [2]
CC(C)CCC[C@@H](C)[C@H]1CC[C@H]2[C@@H]3CC=C4C[C@@H](O)CC[C@]4(C)[C@H]3CC[C@]12C [cholesterol]	at least two	–
CCCCCCCCCCCCCC(=O)O[C@@H]1[C@@H](C)[C@@]2(O)[C@@H](C=C(CO)C[C@]3(O)C(=O)C(C)=C[C@@H]23)[C@@H]2C(C)(C)[C@]12OC(C)=O [PMA, phorbol myristate acetate]	–	at least two
